Measurements: the supplement of paper PMC11919725

Experiments:
Jurkat [1] = test: metabolic activity relative to DMSO, 18 h (ratio); higher = more viable
Summary of the method: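 Jurkat or primary CD4+/CD8+ T cells (naive, or activated 48 h with CD3/CD28 Dynabeads) were treated 18 h with compound at 1 nM–10 µM (log10 steps) at 37 °C, 5% CO2. Then 100 µl of suspension went into 96-well plates with alamarBlue (10% v/v final). After 3.5 h, fluorescence was read on a FluoStar Omega (excitation 544 nm, emission 584 nm). Metabolic activity is normalised to mean DMSO controls.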

Jurkat [2] = test: cytotoxicity relative to DMSO, 18 h (ratio); higher = less cell death (drugs called cytotoxic fall below 1)
Summary of the method: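 Cytotoxicity was measured by IncuCyte fluorescence imaging after confluency correction and normalisation to mean control values. Cells (Jurkat, or primary CD4+/CD8+ T cells that were naive or pre-activated 48 h with CD3/CD28 Dynabeads) received compound at 1 nM–10 µM in log10 steps for 18 h at 37 °C, 5% CO2. Imaging used ×10 magnification, five images per well, taken hourly over 3 h in 96-well plates with 250 nM final IncuCyte Cytotox Dye in 100 µl of suspension.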

Jurkat [3] = test: confluency relative to DMSO, 18 h (ratio); higher = more viable
Summary of the method: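 Jurkat cells and primary CD4+/CD8+ T cells, naive or activated with CD3/CD28 Dynabeads for 48 h, were treated with compound (1 nM–10 µM, log10 steps) for 18 h at 37 °C. Following transfer of 100 µl into 96-well plates with IncuCyte Cytotox Dye and alamarBlue, wells were imaged at ×10, five images per well, each hour for 3 h. Confluency, obtained with the IncuCyte Basic Analyzer from phase-contrast images, is normalised to the mean of the control wells.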

SMILES | metabolic activity (Jurkat [1]; 1 nM) | metabolic activity (Jurkat [1]; 10 nM) | metabolic activity (Jurkat [1]; 100 nM) | metabolic activity (Jurkat [1]; 1000 nM) | metabolic activity (Jurkat [1]; 10000 nM) | cytotoxicity (Jurkat [2]; 1 nM) | cytotoxicity (Jurkat [2]; 10 nM) | cytotoxicity (Jurkat [2]; 100 nM) | cytotoxicity (Jurkat [2]; 1000 nM) | cytotoxicity (Jurkat [2]; 10000 nM) | confluency (Jurkat [3]; 1 nM) | confluency (Jurkat [3]; 10 nM) | confluency (Jurkat [3]; 100 nM) | confluency (Jurkat [3]; 1000 nM) | confluency (Jurkat [3]; 10000 nM)
Nc1cc(C(F)(F)F)c(-c2cc(N3CCOCC3)nc(N3CCOCC3)n2)cn1 [Buparlisib] | 0.939 | 0.925 | 0.834 | 0.742 | 0.377 | 1.03 | 1.06 | 0.975 | 0.987 | 0.6 | 1.04 | 1.05 | 0.999 | 1.02 | 0.756
O=c1cc(-c2ccccc2F)[nH]c2cc3c(cc12)OCO3 [CHM-1] | 1.02 | 1.07 | 0.992 | 0.688 | 0.704 | 0.961 | 0.929 | 0.919 | 0.618 | 0.461 | 0.973 | 0.963 | 0.976 | 0.71 | 0.588
O=C(O)C1(C(=O)O)CCC1.[NH2-].[NH2-].[Pt+2] [Carboplatin] | 0.863 | 0.781 | 0.818 | 0.83 | 0.819 | 0.95 | 1.07 | 0.984 | 0.993 | 0.905 | 0.969 | 0.997 | 0.974 | 0.995 | 0.951
CC(C)CC(NC(=O)C(CCc1ccccc1)NC(=O)CN1CCOCC1)C(=O)NC(Cc1ccccc1)C(=O)NC(CC(C)C)C(=O)C1(C)CO1 (stereo not given) [Carfilzomib] | 1.02 | 0.882 | 0.128 | 0.113 | 0.13 | 1.02 | 0.883 | 0.531 | 0.572 | 0.543 | 1 | 0.909 | 0.803 | 0.867 | 0.818
CCS(=O)(=O)N1CCN(c2ccc(Nc3ncc(C(N)=O)c(NC4CC4)n3)cc2)CC1 [Cerdulatinib] | 0.846 | 0.868 | 0.898 | 0.941 | 0.775 | 1.03 | 1.02 | 0.925 | 0.858 | 0.921 | 1.04 | 1.09 | 0.975 | 0.903 | 1.07
N.N.[Cl][Pt][Cl] [Cisplatin] | 0.96 | 0.989 | 0.983 | 0.939 | 1.02 | 0.845 | 0.582 | 0.996 | 0.984 | 1.13 | 0.99 | 1.09 | 1.01 | 0.934 | 1.03
O=C(CCCCCCNC(=O)c1cnc(N(c2ccccc2)c2ccccc2Cl)nc1)NO [Citarinostat] | 0.94 | 1.02 | 0.916 | 0.886 | 0.632 | 1.03 | 1.04 | 0.967 | 0.941 | 0.871 | 0.975 | 1 | 0.987 | 0.98 | 0.949
COc1cc2c(c(OC)c1OC)-c1ccc(OC)c(=O)cc1C(NC(C)=O)CC2 (stereo not given) [Colchicine] | 0.862 | 0.83 | 0.595 | 0.519 | 0.476 | 0.985 | 1.19 | 0.649 | 0.552 | 0.539 | 1 | 1.03 | 0.72 | 0.663 | 0.637
COc1c(OCCCN2CCOCC2)ccc2c3n(c(=NC(=O)c4cnc(N)nc4)nc12)CCN3 [Copanlisib] | 1.04 | 1.06 | 0.753 | 0.523 | 0.435 | 0.843 | 1.05 | 0.885 | 0.619 | 0.712 | 0.918 | 1.05 | 0.903 | 0.789 | 0.932
CC(Oc1cc(-c2cnn(C3CCNCC3)c2)cnc1N)c1c(Cl)ccc(F)c1Cl (stereo not given) [Crizotinib] | 0.831 | 0.944 | 0.836 | 0.975 | 0.882 | 0.908 | 0.369 | 1.08 | 0.848 | 0.768 | 1.1 | 0.657 | 1 | 0.919 | 0.771
O=P1(N(CCCl)CCCl)NCCCO1 (stereo not given) [Cyclophosphamide] | 1.14 | 1.07 | 1.04 | 1.02 | 1.03 | 1.16 | 0.989 | 0.959 | 0.983 | 0.977 | 1.01 | 0.94 | 0.948 | 0.977 | 0.951
CC(C)(C)c1nc(-c2cccc(NS(=O)(=O)c3c(F)cccc3F)c2F)c(-c2ccnc(N)n2)s1 [Dabrafenib] | 0.973 | 1.02 | 0.992 | 0.91 | 0.73 | 0.941 | 0.994 | 0.966 | 0.846 | 0.863 | 0.98 | 1 | 0.973 | 0.971 | 0.965
Cn1c(=O)n(-c2ccc(C(C)(C)C#N)cc2)c2c3cc(-c4cnc5ccccc5c4)ccc3ncc21 [Dactolisib] | 0.966 | 0.894 | 0.652 | 0.601 | 0.578 | 0.958 | 0.809 | 0.746 | 0.927 | 0.822 | 0.986 | 0.909 | 0.978 | 1.05 | 0.946
